Legend:
Plasmodium falciparum [1] = assay: Antiplasmodial activity against chloroquine-sensitive Plasmodium falciparum NF54 by LDH assay; type: functional, organism-based
Leishmania donovani [2] = assay: Antileishmanial activity against Leishmania donovani 1S promastigotes assessed as inhibition of parasite growth incubated for 72 hrs by resazurin dye based assay; type: functional, organism-based
CHO = assay: Cytotoxicity against CHO cells assessed as reduction in cell viability by MTT assay; type: cell-based; conditions: Cricetulus griseus
[3] = Selectivity index, ratio of IC50 for CHO cells to IC50 for antileishmanial activity against Leishmania donovani 9515 by resazurin dye based assay; type: toxicity; conditions: hamster, read-out: Ratio IC50
Plasmodium falciparum [4] = assay: Antiplasmodial activity against chloroquine-resistant Plasmodium falciparum Dd2 by LDH assay; type: functional, organism-based
Leishmania major = assay: Antileishmanial activity against Leishmania major IR-173 promastigotes assessed as inhibition of parasite growth incubated for 72 hrs by resazurin dye based assay; type: functional, organism-based; conditions: IR-173, 72 h
[5] = Selectivity index, ratio of IC50 for CHO cells to IC50 for antileishmanial activity against Leishmania donovani 1S by resazurin dye based assay; type: toxicity; conditions: hamster, read-out: Ratio IC50
Leishmania donovani [6] = assay: Antileishmanial activity against Leishmania donovani 9515 promastigotes assessed as inhibition of parasite growth incubated for 72 hrs by resazurin dye based assay; type: functional, organism-based; conditions: Leishmania donovani, 9515, 72 h
in vitro = conditions: hamster, CHO cells
Leishmania donovani [7] = assay: Potency index, ratio of dihydroartemisinin IC50 to test compound IC50 for antileishmanial activity against Leishmania donovani 1S promastigotes incubated for 72 hrs by resazurin dye based assay; type: functional
Leishmania donovani [8] = assay: Potency index, ratio of dihydroartemisinin IC50 to test compound IC50 for antileishmanial activity against Leishmania donovani 9515 promastigotes incubated for 72 hrs by resazurin dye based assay; type: functional
Leishmania donovani [9] = assay: Potency index, ratio of artesunate IC50 to test compound IC50 for antileishmanial activity against Leishmania donovani 1S promastigotes incubated for 72 hrs by resazurin dye based assay; type: functional
Leishmania donovani [10] = assay: Potency index, ratio of artemether IC50 to test compound IC50 for antileishmanial activity against Leishmania donovani 1S promastigotes incubated for 72 hrs by resazurin dye based assay; type: functional
Leishmania donovani [11] = assay: Potency index, ratio of artesunate IC50 to test compound IC50 for antileishmanial activity against Leishmania donovani 9515 promastigotes incubated for 72 hrs by resazurin dye based assay; type: functional
Leishmania donovani [12] = assay: Potency index, ratio of artemether IC50 to test compound IC50 for antileishmanial activity against Leishmania donovani 9515 promastigotes incubated for 72 hrs by resazurin dye based assay; type: functional

Row | Structure (SMILES) | IC50 (Plasmodium falciparum [1]) [µM] | IC50 (Leishmania donovani [2]) [µM] | IC50 (CHO) [µM] | selectivity ratio [3] | IC50 (Plasmodium falciparum [4]) [µM] | IC50 (Leishmania major) [µM] | selectivity ratio [5] | IC50 (Leishmania donovani [6]) [µM] | selectivity ratio (in vitro) | Ratio IC50 (Leishmania donovani [7]) | Ratio IC50 (Leishmania donovani [8]) | Ratio IC50 (Leishmania donovani [9]) | Ratio IC50 (Leishmania donovani [10]) | Ratio IC50 (Leishmania donovani [11]) | Ratio IC50 (Leishmania donovani [12])
1 | C[C@@H]1CC[C@H]2C(C)(COC(=O)CCc3ccccc3)O[C@@H]3O[C@@]4(C)CC[C@@H]1[C@]32OO4 (stereo partly drawn) | 0.0074 | 24.4 | > 100 | 4 | 0.0115 | 6.36 | > 4 | 24.6 | 16 |  |  |  |  |  | 
2 | C[C@@H]1CC[C@H]2C(C)(COC(=O)c3ccc(F)cc3)O[C@@H]3O[C@@]4(C)CC[C@@H]1[C@]32OO4 (stereo partly drawn) | 0.0037 | 10.1 | > 100 | 10 | 0.0044 | 7.57 | > 12 | 8.11 | 13 |  |  |  |  |  | 
3 | CCCCCC(=O)OCC1(C)O[C@@H]2O[C@@]3(C)CC[C@H]4[C@H](C)CC[C@@H]1[C@@]24OO3 (stereo partly drawn) | 0.0601 | 25.5 | > 100 | 4 | 0.0432 | 13.9 | > 4 | 23 | 7 |  |  |  |  |  | 
4 | C[C@@H]1CC[C@H]2C(C)(COC(=O)c3cc4ccccc4o3)O[C@@H]3O[C@@]4(C)CC[C@@H]1[C@]32OO4 (stereo partly drawn) | 0.0146 | 13.5 | > 100 | 7 | 0.0071 | 11.2 | > 10 | 10.3 | 9 |  |  |  |  |  | 
5 | COc1ccc2nc3cc(Cl)ccc3c(N3CCNCC3)c2c1 | 1.49 | 3.26 | 3.4 | 1 | 1.67 | 3.52 | 1.1 | 3.21 | 1 |  |  |  |  |  | 
6 | COc1ccc2nc3cc(Cl)ccc3c(NCCN)c2c1 | 0.0139 | 2.26 | 1 | 0.4 | 0.0807 | 2.07 | 0.4 | 2.81 | 0.5 |  |  |  |  |  | 
7 | C[C@@H]1CC[C@H]2C(C)(COC(=O)c3ccco3)O[C@@H]3O[C@@]4(C)CC[C@@H]1[C@]32OO4 (stereo partly drawn) | 0.0092 | > 100 | > 100 | 1 | 0.0031 | > 100 |  | > 100 | 1 |  |  |  |  |  | 
8 | C[C@@H]1CC[C@H]2C(C)(COC(=O)[C@H]3CCCN3C(=O)C(F)(F)F)O[C@@H]3O[C@@]4(C)CC[C@@H]1[C@]32OO4 (stereo partly drawn) | 0.0079 | 9.29 | > 100 | 11 | 0.0078 | 15.6 | 3 | 37.6 | 4 |  |  |  |  |  | 
9 | CC(=O)OCC1(C)O[C@@H]2O[C@@]3(C)CC[C@H]4[C@H](C)CC[C@@H]1[C@@]24OO3 (stereo partly drawn) | 0.0112 | 85.2 | > 100 | 1 | 0.0126 | 42.1 |  | > 100 | 2 |  |  |  |  |  | 
10 | C[C@H]1[C@@H](O)O[C@@H]2O[C@@]3(C)CC[C@H]4[C@H](C)CC[C@@H]1[C@@]24OO3 [ARTENIMOL] | 0.0022 | 27 | > 100 | 4 | 0.0012 | 42.6 | 3 | 31.2 | 2 |  |  |  |  |  | 
11 | C[C@@H]1CC[C@H]2C(C)(COC(=O)c3ccc(-c4ccccc4)cc3)O[C@@H]3O[C@@]4(C)CC[C@@H]1[C@]32OO4 (stereo partly drawn) | 0.0073 | 4.42 | > 100 | 23 | 0.0069 | 9.87 | > 36 | 2.8 | 10 | 30 | 30 | 30 | 30 | 30 | 30
12 | CCCC(=O)OCC1(C)O[C@@H]2O[C@@]3(C)CC[C@H]4[C@H](C)CC[C@@H]1[C@@]24OO3 (stereo partly drawn) | 0.0169 | 12.4 | > 100 | 8 | 0.0069 | 11.9 | > 2 | 45 | 8 |  |  |  |  |  | 
13 | COc1ccc2nc3cc(Cl)ccc3c(N3CCN(CCO[C@H]4O[C@@H]5O[C@@]6(C)CC[C@H]7[C@H](C)CC[C@@H]([C@H]4C)[C@@]57OO6)C(C)C3)c2c1 (stereo partly drawn) | 0.017 | 2.38 | 6 | 5 | 0.0413 | 0.69 | 4 | 1.59 | 9 |  |  |  |  |  | 
14 | CNCCCNc1c2ccc(Cl)cc2nc2ccc(OC)cc12 | 0.0091 | 3.7 | 0.5 | 0.1 | 0.117 | 1.43 | 0.2 | 3.33 | 0.4 |  |  |  |  |  | 
15 | COc1ccc2nc3cc(Cl)ccc3c(N3CCNC(C)C3)c2c1 (stereo not drawn) | 0.158 | 4.16 | 5.6 | 1.4 | 0.384 | 3.47 | 1.6 | 3.54 | 1.6 |  |  |  |  |  | 
16 | C[C@@H]1CC[C@H]2C(C)(COC(=O)c3cccs3)O[C@@H]3O[C@@]4(C)CC[C@@H]1[C@]32OO4 (stereo partly drawn) | 0.0048 | 11.5 | > 100 | 9 | 0.0059 | 9.93 |  | > 100 | 10 | 30 | 30 | 30 | 30 | 30 | 30
17 | COc1ccc2nc3cc(Cl)ccc3c(NCCNCCO[C@H]3O[C@@H]4O[C@@]5(C)CC[C@H]6[C@H](C)CC[C@@H]([C@H]3C)[C@@]46OO5)c2c1 | 0.0026 | 0.38 | 1.6 | 4 | 0.0353 | 0.29 | 5 | 0.32 | 6 |  |  |  |  |  | 
18 | COc1ccc2nc3cc(Cl)ccc3c(NCCCN(C)CCO[C@H]3O[C@@H]4O[C@@]5(C)CC[C@H]6[C@H](C)CC[C@@H]([C@H]3C)[C@@]46OO5)c2c1 | 0.0122 | 0.37 | 1.2 | 3 | 0.0385 | 0.23 | 7 | 0.17 | 5 |  |  |  |  |  | 
19 | C[C@H]1[C@H](OC(=O)CCC(=O)O)O[C@@H]2O[C@@]3(C)CC[C@H]4[C@H](C)CC[C@@H]1[C@@]24OO3 [SODIUM ARESUNATE] | 0.008 | 63.1 | > 100 | 1.6 |  | 61.2 | 1 | 80.2 | 1.6 |  |  |  |  |  | 
20 | COc1ccc2nc3cc(Cl)ccc3c(N3CCN(CCO[C@H]4O[C@@H]5O[C@@]6(C)CC[C@H]7[C@H](C)CC[C@@H]([C@H]4C)[C@@]57OO6)CC3)c2c1 | 0.267 | 54.1 | > 100 | 3 | 0.43 | 4.8 | 5 | 32.1 | 33 |  |  |  |  |  | 
21 | CC[C@H]1CN2CCc3cc(OC)c(OC)cc3[C@@H]2C[C@@H]1C[C@H]1NCCc2cc(OC)c(OC)cc21 [EMETINE] |  |  | 0.29 |  |  |  |  |  |  |  |  |  |  |  | 
22 | C[C@@H]1CC[C@H]2C(C)(COC(=O)c3ccc([N+](=O)[O-])cc3)O[C@@H]3O[C@@]4(C)CC[C@@H]1[C@]32OO4 (stereo partly drawn) | 0.0067 | 5.15 | > 100 | 19 | 0.0026 | 5.71 | > 24 | 4.26 | 18 |  |  |  |  |  | 
23 | CO[C@H]1O[C@@H]2O[C@@]3(C)CC[C@H]4[C@H](C)CC[C@@H]([C@H]1C)[C@@]24OO3 |  | 42.3 | > 100 | 2 |  | 22.5 | 1 | 90.9 | 4 |  |  |  |  |  | 
24 | C[C@@H]1CC[C@H]2C(C)(CO)O[C@@H]3O[C@@]4(C)CC[C@@H]1[C@]32OO4 (stereo partly drawn) | 0.0041 | > 100 | > 100 | 1 | 0.0074 | > 100 |  | > 100 | 1 |  |  |  |  |  | 
